Results on eight compounds are retold here after PubChem BioAssay (NCI).

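Growth conditions: 96-well plates. Treatment: test compound, 48 hours, 5 concentrations. Analysis: linear interpolation between bracketing concentrations; unreached endpoints set to highest concentration. GI50 is the concentration that inhibits growth by half. TGI is the concentration that stops growth completely.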 A value given as a limit tells only on which side of the number the result lay.

Test systems include HT29 colon; HOP-62 NSCLC; UO-31 renal; NCI-H522 lung; M14 melanoma; SF-539 CNS; SK-MEL-5 melanoma; EKVX NSCLC; MALME-3M melanoma; SW-620 colon.
What all share (test): inhibition of tumour cell growth, NCI panel, 48 h

As for `c1cc(N2CCN(c3ccc(C4=NCCCN4)cc3)CC2)ccc1C1=NCCCN1`, the GI50 is greater than 53.2 µM in the experiment on HT29 colon; greater than 100 µM with HOP-62 NSCLC; greater than 100 µM in the experiment on UO-31 renal; greater than 55.9 µM with NCI-H522 lung; greater than 100 µM with M14 melanoma; greater than 74.5 µM in the experiment with SF-539 CNS. Moreover, the GI50 is 21.2 µM in the experiment on SK-MEL-5 melanoma, greater than 100 µM with EKVX NSCLC, greater than 47.6 µM with MALME-3M melanoma and greater than 62.6 µM with SW-620 colon. The TGI in the experiment with HT29 colon, in the experiment on HOP-62 NSCLC, with UO-31 renal, in the experiment on NCI-H522 lung, with M14 melanoma and in the experiment with SF-539 CNS was greater than 100 µM throughout. In addition, the TGI in the experiment on SK-MEL-5 melanoma, in the experiment on EKVX NSCLC, in the experiment on MALME-3M melanoma and in the experiment on SW-620 colon was greater than 100 µM each time.
Turning to `Oc1c(-c2cc(C(F)(F)F)[nH]n2)cc(Cl)c(OCc2ccc(Cl)cc2)c1-c1ccc(Cl)c(C(F)(F)F)c1`, the GI50 in the experiment with HT29 colon was 1.4 µM; with HOP-62 NSCLC it was 0.766 µM; with UO-31 renal, 0.818 µM; with NCI-H522 lung, 0.167 µM; with M14 melanoma it was 0.851 µM; in the experiment with SF-539 CNS it was 0.749 µM. Also, the GI50 is 0.265 µM with SK-MEL-5 melanoma, 0.795 µM with EKVX NSCLC, 0.789 µM in the experiment on MALME-3M melanoma and 0.298 µM in the experiment on SW-620 colon. The TGI stood at 5.83 µM with HT29 colon; 3.04 µM in the experiment with HOP-62 NSCLC; 2.21 µM in the experiment with UO-31 renal; 1.72 µM in the experiment on NCI-H522 lung; 2.44 µM with M14 melanoma; 2.72 µM with SF-539 CNS. Also, the TGI in the experiment on SK-MEL-5 melanoma came out at 0.941 µM; in the experiment on EKVX NSCLC, 5.56 µM; in the experiment on MALME-3M melanoma, 2.19 µM; in the experiment with SW-620 colon, 4.15 µM.
In the case of `Cc1ccccc1-n1c(N)c(-c2nc3ccccc3[nH]2)sc1=S`, the TGI in the experiment on HT29 colon was found to be 36.9 µM; in the experiment on HOP-62 NSCLC, 46 µM; with UO-31 renal, 45.6 µM; in the experiment on NCI-H522 lung, 50.3 µM; in the experiment on M14 melanoma it was 36.5 µM; in the experiment with SF-539 CNS, 41.1 µM. The TGI with SK-MEL-5 melanoma came out at 36.6 µM; with EKVX NSCLC it was 88.5 µM; with MALME-3M melanoma, 45.1 µM; with SW-620 colon, 72.5 µM.
As to `C/C(=N\O)c1cccc(Nc2cc(-n3ccnc3)c3ccccc3n2)c1`, the GI50 in the experiment on HT29 colon is 14.7 µM; in the experiment with HOP-62 NSCLC it was 16.6 µM; with UO-31 renal, 13.8 µM; with NCI-H522 lung it was 14.3 µM; with M14 melanoma, 11.6 µM; in the experiment with SF-539 CNS it was 17.2 µM. The GI50 is 13.9 µM with SK-MEL-5 melanoma, 13.2 µM in the experiment on EKVX NSCLC, 11.1 µM in the experiment on MALME-3M melanoma and 19.6 µM in the experiment with SW-620 colon. Besides, the TGI in the experiment on HT29 colon is 49.4 µM; in the experiment on HOP-62 NSCLC, 31.3 µM; in the experiment on UO-31 renal, 34.6 µM; in the experiment on NCI-H522 lung it was 30.7 µM; with M14 melanoma it was 24.1 µM; in the experiment on SF-539 CNS it was 33.5 µM. The TGI in the experiment with SK-MEL-5 melanoma came out at 27.2 µM; in the experiment with EKVX NSCLC, 28.1 µM; with MALME-3M melanoma, 25.3 µM; in the experiment on SW-620 colon it was 42.1 µM.
Consider `Cc1ccncc1C(N)=O`, for which the GI50 with HT29 colon, in the experiment on HOP-62 NSCLC, in the experiment on UO-31 renal, with NCI-H522 lung, with M14 melanoma and with SF-539 CNS was greater than 100 µM throughout. The GI50 with SK-MEL-5 melanoma, in the experiment on EKVX NSCLC, in the experiment with MALME-3M melanoma and with SW-620 colon was greater than 100 µM throughout. The TGI in the experiment on HT29 colon, in the experiment on HOP-62 NSCLC, with UO-31 renal, in the experiment on NCI-H522 lung, in the experiment with M14 melanoma and in the experiment with SF-539 CNS was greater than 100 µM throughout. The TGI in the experiment on SK-MEL-5 melanoma, in the experiment with EKVX NSCLC, in the experiment on MALME-3M melanoma and with SW-620 colon was greater than 100 µM in each case.
Turning to `O=C(/C=C/c1ccc(Cl)c(Cl)c1)c1cccc2ccccc12`, the TGI in the experiment on HT29 colon came to 12.1 µM; in the experiment with HOP-62 NSCLC, 31.4 µM; in the experiment on UO-31 renal it was 33.8 µM; in the experiment on NCI-H522 lung, 10 µM; in the experiment with M14 melanoma, 30.9 µM; in the experiment with SF-539 CNS, 7.14 µM. In addition, the TGI in the experiment on SK-MEL-5 melanoma worked out at 34.7 µM; with EKVX NSCLC, 32.5 µM; in the experiment with MALME-3M melanoma it was 32.4 µM; in the experiment with SW-620 colon, 3.08 µM.
Regarding `CC1=C(CC2C(=O)N(c3ccccc3)S(=O)(=O)NC2C)C(=O)N(c2ccccc2)S(=O)(=O)N1C` (stereo not given), the TGI in the experiment on HT29 colon, in the experiment on HOP-62 NSCLC, in the experiment with UO-31 renal, in the experiment with NCI-H522 lung, with M14 melanoma and with SF-539 CNS was greater than 100 µM throughout. Further, the TGI with SK-MEL-5 melanoma, with EKVX NSCLC, in the experiment on MALME-3M melanoma and with SW-620 colon was greater than 100 µM in each case.
Take `C[C@@H]1Cc2cc(O)ccc2[C@H]2CC[C@]3(C)/C(=C/COCCN(C)C)CC[C@H]3[C@H]12` (tested in a mixture with another compound): the GI50 in the experiment on HT29 colon was 0.368 µM; in the experiment with HOP-62 NSCLC, 0.285 µM; with UO-31 renal, 0.221 µM; in the experiment with NCI-H522 lung, 0.131 µM; in the experiment with M14 melanoma, 0.381 µM; in the experiment on SF-539 CNS, 0.176 µM. Also, the GI50 was 0.205 µM in the experiment on SK-MEL-5 melanoma, 0.145 µM in the experiment on EKVX NSCLC, 0.324 µM with MALME-3M melanoma and 0.214 µM with SW-620 colon. Besides, the TGI in the experiment with HT29 colon is 1.2 µM; in the experiment with HOP-62 NSCLC it was 0.739 µM; in the experiment on UO-31 renal it was 0.514 µM; in the experiment with NCI-H522 lung, 0.735 µM; in the experiment with M14 melanoma it was 1.44 µM; in the experiment with SF-539 CNS it was 0.339 µM. Moreover, the TGI with SK-MEL-5 melanoma worked out at 0.453 µM; in the experiment with EKVX NSCLC, 0.472 µM; with MALME-3M melanoma it was 0.865 µM; in the experiment on SW-620 colon, 0.482 µM.
